The structures appear in SMILES notation.

In experiment [1] the test system is KM12 cells (harboring endogenous TPM3-TRKA fusion gene). Nature of the experiment: KM12 cell proliferation assay (CellTiter-Glo, 72 hours). It counts as cell-based. Conditions: Homo sapiens, KM12 colorectal cell line, 72 hours incubation. On the procedure:
(§1) Colorectal cell lines KM 12 (harboring endogenous TPM3-TRKA fusion gene) cells were cultured in DMEM medium, supplemented with 10% fetal bovine serum and 100 U/mL of penicillin/streptomycin. 5000 cells were seeded in 384 well white plate for 24 hours before compounds treatment. Cell proliferation was measured using CellTiter-Glo luciferase-based ATP detection assay (Promega) following the manufactures's protocol after 72 hours incubation. IC50 determinations were performed using GraphPad Prism software (GraphPad, Inc., San Diego, Calif.).
as §1, with “Alternatively: Colorectal” for “Colorectal”, “line KM12” for “lines KM 12”, “DMEM medium, supplemented with 10% fetal bovine serum and 100 U/mL of penicillin/streptomycin. Essential thrombocythemia cell line SET-2 cells (harboring endogenous JAK2 V618F point mutation) were cultured in RPMI” for “DMEM”
For orientation: In ATP-based viability assays light output follows the ATP content of the culture.

The test system of experiment [2] is SET-2 cells (harboring endogenous JAK2 V618F point mutation). Nature of the experiment: SET-2 cell proliferation assay (CellTiter-Glo, 72 hours). To be noted: Homo sapiens, SET-2 essential thrombocythemia cell line, 72 hours incubation, read-out: Cell Proliferation JAK2 SET2 Cell IC50. It counts as cell-based. On the procedure: as §1, with “Alternatively: Colorectal” for “Colorectal”, “line KM12” for “lines KM 12”, “DMEM medium, supplemented with 10% fetal bovine serum and 100 U/mL of penicillin/streptomycin. Essential thrombocythemia cell line SET-2 cells (harboring endogenous JAK2 V618F point mutation) were cultured in RPMI” for “DMEM”

The next experiment addresses T1, BTK kinase (Homo sapiens, UniProt Q06187).
T1 construct: purchased Eurofins (KinaseProfiler) / Reaction Biology Corporation
Nature of the experiment: BTK biochemical kinase assay (radiometric; Eurofins KinaseProfiler / Reaction Biology). Conditions: ATP 10 μM. On the procedure: The Compounds were tested against BTK kinase using the Eurofins standard KinaseProfiler™ assays and following the relevant standard operating procedures. Protein kinases were assayed in a radiometric format. Full details of the assay for each kinase are available on the Eurofins website, or in the accompanying protocol document. All compounds were prepared to a working stock of 50× final assay concentration in 100% DMSO. Where appropriate, more concentrated stocks were diluted manually to 50× using 100% DMSO. Compounds supplied as powders were reconstituted to a 10 mM stock in 100% DMSO before further dilution to 50×. The required volume of the 50× stock of test compound was added to the assay well, before a reaction mix containing the enzyme and substrate was added. The reaction was initiated by the addition of ATP at the selected 10 μM concentration. There was no pre-incubation of the compound with the enzyme/substrate mix prior to ATP addition. For IC50 determinations, data are analysed using XLFit version 5.3 (ID Business Solutions). Sigmoidal dose-response (variable slope) curves are fit based on the mean result for each test concentration using non-linear regression analysis. Where the top and/or bottom of the curve fall >10% out with 100 and 0, respectively, either or both of these limits may be constrained at 100 and 0, provided that the QC criterion on R^2 is met.
The BTK biochemical kinase assay was also performed at Reaction Biology Corporation (www.reactionbiology.com, Malvern, Pa.) following the procedures described in the reference (Anastassiadis T, et al Nat Biotechnol. 2011, 29, 1039). Specific kinase/substrate pairs along with required cofactors were prepared in reaction buffer; 20 mM Hepes pH 7.5, 10 mM MgCl2, 1 mM EGTA, 0.02% Brij35, 0.02 mg/ml BSA, 0.1 mM Na3VO4, 2 mM DTT, 1% DMSO (for specific details of individual kinase reaction components see Supplementary Table 2). Compounds were delivered into the reaction, followed ˜20 minutes later by addition of a mixture of ATP (Sigma, St. Louis Mo.) and ^33P ATP (Perkin Elmer, Waltham Mass.) to a final concentration of 10 μM. Reactions were carried out at room temperature for 120 min, followed by spotting of the reactions onto P81 ion exchange filter paper (Whatman Inc., Piscataway, N.J.). Unbound phosphate was removed by extensive washing of filters in 0.75% phosphoric acid. […] IC50 values and curve fits were obtained using Prism (GraphPad Software).

T1 sequence (Q06187 whole entry): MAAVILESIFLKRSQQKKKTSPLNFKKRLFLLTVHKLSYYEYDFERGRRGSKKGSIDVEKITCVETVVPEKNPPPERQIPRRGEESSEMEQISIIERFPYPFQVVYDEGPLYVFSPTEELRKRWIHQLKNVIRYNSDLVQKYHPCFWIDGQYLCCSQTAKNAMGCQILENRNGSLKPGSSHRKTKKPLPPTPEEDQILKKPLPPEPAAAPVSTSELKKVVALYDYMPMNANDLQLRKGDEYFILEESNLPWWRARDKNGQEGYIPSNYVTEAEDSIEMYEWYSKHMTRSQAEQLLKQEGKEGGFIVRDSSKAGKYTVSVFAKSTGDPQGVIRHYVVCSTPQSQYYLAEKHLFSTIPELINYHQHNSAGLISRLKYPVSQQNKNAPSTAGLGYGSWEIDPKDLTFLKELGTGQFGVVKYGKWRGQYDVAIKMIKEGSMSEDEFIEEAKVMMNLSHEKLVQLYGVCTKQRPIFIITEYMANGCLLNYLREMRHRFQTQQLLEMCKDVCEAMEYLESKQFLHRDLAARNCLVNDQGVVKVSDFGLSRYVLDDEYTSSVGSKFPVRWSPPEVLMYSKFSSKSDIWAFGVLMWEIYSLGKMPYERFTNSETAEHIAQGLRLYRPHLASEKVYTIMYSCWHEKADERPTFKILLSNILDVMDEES

Regarding `C[C@H]1CNC(=O)c2cnn3ccc(nc23)N[C@H](C)c2cc(F)cc(F)c2O1` [Compound 1, (7S,13R)-9,11-difluoro-7,13-dimethyl-6,7,13,14-tetrahydro-1,15-ethenopyrazolo[4,3-f][1,4,8,10]benzoxatriazacyclotridecin-4(5H)-one], the IC50 in experiment [1] is 0.2 nM; in experiment [2] it was 120 nM; at BTK kinase it was 2.47 nM.
On to `C[C@H]1CNC(=O)c2cnn3ccc(nc23)N[C@H](C)c2c(ccc(F)c2Cl)O1` [Compound 2, (7S,13R)-12-chloro-11-fluoro-7,13-dimethyl-6,7,13,14-tetrahydro-1,15-ethenopyrazolo[4,3-f][1,4,8,10]benzoxatriazacyclotridecin-4(5H)-one], for which the IC50 in experiment [1] worked out at 5.1 nM; in experiment [2], 3000 nM; against BTK kinase, 2.53 nM.

(Values after patent US10689400B2, “Macrocycle kinase inhibitors” (Turning Point Therapeutics, Inc., priority 2016, dated 2020).)
